Measurements published in patent US9617267B2, “Compounds and methods for kinase modulation, and indications therefor” (Plexxikon Inc., priority 2009, dated 2017).
Where two headings read alike, the source gives them in different places.

Assays:
[1] = target: CYP2C9 (Homo sapiens (Human), UniProt P11712); experiment: CYP enzyme inhibition, fluorescent substrate (MFC); conditions: read-out: Cyp IC50 2C9; CYP2C9, substrate MFC
Experimental: (§1) CYP (Cytochrome P450) enzymes are the major drug metabolizing enzymes present in the liver. The inhibition of CYP enzyme activity (IC50) for each of CYP1A2, CYP2C19, CYP2C9, CYP2D6, CYP3A4(BFC) and CYP3A4(BQ) is determined for compounds, where inhibition of metabolism of a known substrate leads to a decrease in the fluorescence of the metabolized product. The fluorescence of the product is monitored as a function of compound concentration.
(§2) Compounds are dissolved in dimethyl sulfoxide to a concentration of 100 mM. These are diluted 1 μL into 82 μL of acetonitrile. […] These are then serially diluted 1:1 (160 μL to 160 μL co-factor mix) for a total of 10 points. A 10 μL aliquot of this final mixture is dispensed into 384 well assay plates and incubated for 10 minutes at 37° C. […] Assay plates are incubated at 37° C. […] The signal versus compound concentration is used to determine the IC50. The enzymes and substrates for this assay are obtained from BD Biosciences.

[2] = target: c-Raf-1 (Homo sapiens, UniProt P04049); experiment: c-Raf-1 kinase activity biochemical assay (AlphaScreen, biotin-MEK1 phosphorylation)
Experimental: (§3) Compounds to be tested are diluted in dimethyl sulfoxide to a concentration of 0.1 mM. These are serially diluted 15 μL into 30 μL of dimethyl sulfoxide seven times in 96 well plates for a total of 8 dilution points, and for each dilution point 1 μL is added to a well of an assay plate. […] The reaction is started with addition of 10 μL of 200 μM ATP (i.e. final 100 μM ATP). After incubation of the kinase reaction for 45 minutes at room temperature, 5 μL/well of Stop Solution is added (25 mM Hepes pH 7.5, 100 mM EDTA, 0.01% BSA with donor beads (Streptavidin coated beads, Perkin Elmer), acceptor beads (Protein A coated, Perkin Elmer), and anti phosphor MEK1/2 antibody (CellSignal), each at final concentration 10 μg/mL). The plates are incubated for 3 hours at room temperature and read on Envision reader (Perkin Elmer). […] The signal vs. compound concentration is used to determine the IC50.

[3] = target: CYP1A2 (Homo sapiens (Human), UniProt P05177); experiment: CYP enzyme inhibition, fluorescent substrate (CEC)
Experimental: as §1
(§4) Compounds are dissolved in dimethyl sulfoxide to a concentration of 100 mM. These are diluted 1 μL into 82 μL of acetonitrile. An 11 μL aliquot of this solution is then added to 204 μL of cofactor mix (1.3% NADPH Regeneration system Solution A, 1.04% NADPH Regeneration system Solution B from BD Biosciences, 5% acetonitrile and 0.05% dimethyl sulfoxide). These are then serially diluted 1:1 (160 μL to 160 μL co-factor mix) for a total of 10 points. A 10 μL aliquot of this final mixture is dispensed into 384 well assay plates and incubated for 10 minutes at 37° C. Enzyme and substrate mix (10 μL; 0.5 pmol CYP1A2/5 μM CEC; 1.0 pmol CYP2C9/75 μM MFC; 0.5 pmol CYP2C19/25 μM CEC; 1.5 pmol CYP2D6/1.5 μM AMMC; 1.0 pmol CYP3A4/50 μM BFC; or 1.0 pmol CYP3A4/40 μM BQ) is added to these assay plates. Assay plates are incubated at 37° C. (CYP1A2-15 min; CYP2C9-45 min; CYP2C19, 2D6 and 3A4-30 min) and read in a Tecan Safire 2 plate reader (CYP1A2, 2C19 and 3A4 409 ex/460 em; CYP2C9 and 2D6 409 ex/530 em). The signal versus compound concentration is used to determine the IC50. The enzymes and substrates for this assay are obtained from BD Biosciences.

[4] = target: B-Raf V600E (Homo sapiens (Human), UniProt P15056, V600E); experiment: B-Raf V600E kinase activity biochemical assay (AlphaScreen, biotin-MEK1 phosphorylation); conditions: for IC50: B-Raf V600E; for Biochemical activity ratio V600E/C: ratio of IC50 B-Raf V600E / c-Raf-1
Experimental: as §3

[5] = test system: B-Raf; experiment: B-Raf kinase activity biochemical assay (AlphaScreen, biotin-MEK1 phosphorylation); conditions: for Biochemical activity ratio B/V600E: ratio of IC50 B-Raf / B-Raf V600E; for Biochemical activity ratio B/C: ratio of IC50 B-Raf / c-Raf-1
Experimental: as §3

[6] = target: B-Raf (Homo sapiens (Human), UniProt P15056); experiment: as above; conditions: B-Raf
Experimental: as §3

[7] = target: CYP3A4(BFC) (Homo sapiens (Human), UniProt P08684); experiment: CYP enzyme inhibition, fluorescent substrate BFC
Experimental: as §1, §2

[8] = target: CYP2C19 (Homo sapiens (Human), UniProt P33261); experiment: CYP enzyme inhibition, fluorescent substrate (CEC)
Experimental: as §1, §2

[9] = Relative solubility by turbidity threshold concentration in aqueous buffers (pH 1.5, 4.5, 6.8, 7.4); type: physicochemical; conditions: for turbidity threshold (L, M, H) 1.4: pH 1.4 [sic] (method: SGF pH 1.5); for turbidity threshold (L, M, H) 6.8: pH 6.8 (SIF); for turbidity threshold (L, M, H) 7.4: pH 7.4 (HEPES); for turbidity threshold (L, M, H) 4.5: pH 4.5 (SIF)
Outline: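 Solubility class (high >250 μM, moderate 31.3–250 μM, low <31.3 μM) comes from the concentration where absorbance reaches a 0.01 threshold, averaged across 490/535/650 nm. Samples were compound dilutions from DMSO stock, 1 μL into 99 μL buffer at pH 1.5, 4.5, 6.8 or 7.4.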

[10] = target: CYP2D6 (Homo sapiens (Human), UniProt P10635); experiment: CYP enzyme inhibition, fluorescent substrate (AMMC); type: in vitro ADME; conditions: read-out: Cyp IC50 2D6
Experimental: as §1, §4

[11] = read-out: Cyp IC50 3A4(BFC), CYP3A4, substrate BFC
[12] = read-out: Cyp IC50 2C19, CYP2C19, substrate CEC

CYP3A4(BFC), sequence (P08684 whole entry): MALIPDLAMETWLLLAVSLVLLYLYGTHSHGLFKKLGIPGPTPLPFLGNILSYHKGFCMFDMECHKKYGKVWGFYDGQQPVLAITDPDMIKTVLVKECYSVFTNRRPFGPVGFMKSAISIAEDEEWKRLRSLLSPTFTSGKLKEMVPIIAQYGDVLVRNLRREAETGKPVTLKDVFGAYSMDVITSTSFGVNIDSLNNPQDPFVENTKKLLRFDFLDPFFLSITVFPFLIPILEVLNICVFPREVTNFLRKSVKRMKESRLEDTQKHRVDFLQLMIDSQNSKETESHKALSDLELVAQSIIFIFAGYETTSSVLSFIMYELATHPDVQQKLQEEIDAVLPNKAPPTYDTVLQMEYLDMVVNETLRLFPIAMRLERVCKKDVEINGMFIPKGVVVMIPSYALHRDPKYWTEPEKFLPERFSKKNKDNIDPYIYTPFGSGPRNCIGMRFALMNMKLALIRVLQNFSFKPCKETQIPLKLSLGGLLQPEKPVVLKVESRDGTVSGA
B-Raf (Homo sapiens (Human), UniProt P15056), sequence (P15056 whole entry): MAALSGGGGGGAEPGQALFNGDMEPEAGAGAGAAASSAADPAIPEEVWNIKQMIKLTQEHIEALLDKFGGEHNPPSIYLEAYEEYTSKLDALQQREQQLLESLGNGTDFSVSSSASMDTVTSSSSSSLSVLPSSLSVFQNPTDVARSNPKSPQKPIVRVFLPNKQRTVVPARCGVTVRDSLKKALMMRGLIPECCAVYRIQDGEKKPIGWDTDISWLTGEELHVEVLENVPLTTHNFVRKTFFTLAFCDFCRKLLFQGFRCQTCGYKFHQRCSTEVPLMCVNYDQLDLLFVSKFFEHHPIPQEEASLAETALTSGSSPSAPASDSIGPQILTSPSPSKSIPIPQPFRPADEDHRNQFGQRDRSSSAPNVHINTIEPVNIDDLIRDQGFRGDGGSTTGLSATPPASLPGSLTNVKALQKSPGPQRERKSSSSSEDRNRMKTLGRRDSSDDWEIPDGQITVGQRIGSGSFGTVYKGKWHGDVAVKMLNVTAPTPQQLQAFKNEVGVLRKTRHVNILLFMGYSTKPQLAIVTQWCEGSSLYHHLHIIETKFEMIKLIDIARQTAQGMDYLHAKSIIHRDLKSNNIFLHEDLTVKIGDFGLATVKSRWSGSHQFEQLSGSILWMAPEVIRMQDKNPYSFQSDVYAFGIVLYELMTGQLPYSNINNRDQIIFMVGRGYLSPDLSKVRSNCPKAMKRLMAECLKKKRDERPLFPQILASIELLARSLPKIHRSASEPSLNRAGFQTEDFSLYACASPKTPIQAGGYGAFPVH
B-Raf V600E, sequence (P15056 whole entry V600E): as the sequence (P15056 whole entry) above, with V600E counted along it
c-Raf-1, sequence (P04049 whole entry, looked up): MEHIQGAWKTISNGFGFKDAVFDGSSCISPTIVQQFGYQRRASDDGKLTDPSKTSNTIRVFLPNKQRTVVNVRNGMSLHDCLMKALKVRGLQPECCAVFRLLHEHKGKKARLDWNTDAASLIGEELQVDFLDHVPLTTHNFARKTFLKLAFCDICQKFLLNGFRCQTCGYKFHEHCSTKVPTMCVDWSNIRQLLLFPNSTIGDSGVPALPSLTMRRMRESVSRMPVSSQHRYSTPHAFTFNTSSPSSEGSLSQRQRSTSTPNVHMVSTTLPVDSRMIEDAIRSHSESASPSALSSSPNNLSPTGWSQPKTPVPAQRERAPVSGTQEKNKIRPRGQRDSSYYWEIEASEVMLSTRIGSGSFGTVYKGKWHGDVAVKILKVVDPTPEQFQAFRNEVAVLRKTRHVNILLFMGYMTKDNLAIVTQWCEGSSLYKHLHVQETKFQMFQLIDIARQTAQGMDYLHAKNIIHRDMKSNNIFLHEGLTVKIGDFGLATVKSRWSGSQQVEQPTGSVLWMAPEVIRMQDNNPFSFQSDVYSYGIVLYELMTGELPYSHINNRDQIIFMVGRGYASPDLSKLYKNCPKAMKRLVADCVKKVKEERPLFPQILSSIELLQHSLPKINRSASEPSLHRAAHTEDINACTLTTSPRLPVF
CYP2D6, sequence (P10635 whole entry): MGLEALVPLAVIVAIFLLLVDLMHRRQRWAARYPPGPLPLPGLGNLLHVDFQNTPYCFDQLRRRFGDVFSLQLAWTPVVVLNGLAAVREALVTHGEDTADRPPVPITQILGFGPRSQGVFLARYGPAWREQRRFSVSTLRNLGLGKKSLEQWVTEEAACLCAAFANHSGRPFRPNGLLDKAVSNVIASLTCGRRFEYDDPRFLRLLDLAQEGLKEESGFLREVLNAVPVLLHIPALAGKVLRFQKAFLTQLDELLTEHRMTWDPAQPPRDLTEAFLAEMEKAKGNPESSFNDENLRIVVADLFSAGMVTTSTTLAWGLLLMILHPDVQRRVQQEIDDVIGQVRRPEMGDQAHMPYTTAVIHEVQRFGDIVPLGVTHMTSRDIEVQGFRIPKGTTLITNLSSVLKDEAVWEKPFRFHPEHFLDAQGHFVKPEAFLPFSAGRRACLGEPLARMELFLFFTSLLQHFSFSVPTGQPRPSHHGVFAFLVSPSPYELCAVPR
CYP2C9, sequence (P11712 whole entry): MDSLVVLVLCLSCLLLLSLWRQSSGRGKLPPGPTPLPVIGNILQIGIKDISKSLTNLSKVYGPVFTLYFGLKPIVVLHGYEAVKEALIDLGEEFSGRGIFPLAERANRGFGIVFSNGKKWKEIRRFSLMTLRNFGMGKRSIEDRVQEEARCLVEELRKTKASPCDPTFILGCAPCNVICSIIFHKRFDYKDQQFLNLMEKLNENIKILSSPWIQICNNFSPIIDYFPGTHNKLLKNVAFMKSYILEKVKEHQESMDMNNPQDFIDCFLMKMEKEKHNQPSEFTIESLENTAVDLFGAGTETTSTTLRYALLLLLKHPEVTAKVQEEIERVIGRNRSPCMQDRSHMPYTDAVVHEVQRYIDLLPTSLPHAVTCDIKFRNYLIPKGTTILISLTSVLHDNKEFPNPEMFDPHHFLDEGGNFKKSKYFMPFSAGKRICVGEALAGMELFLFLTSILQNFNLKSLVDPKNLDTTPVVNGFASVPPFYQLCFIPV
CYP2C19, sequence (P33261 whole entry): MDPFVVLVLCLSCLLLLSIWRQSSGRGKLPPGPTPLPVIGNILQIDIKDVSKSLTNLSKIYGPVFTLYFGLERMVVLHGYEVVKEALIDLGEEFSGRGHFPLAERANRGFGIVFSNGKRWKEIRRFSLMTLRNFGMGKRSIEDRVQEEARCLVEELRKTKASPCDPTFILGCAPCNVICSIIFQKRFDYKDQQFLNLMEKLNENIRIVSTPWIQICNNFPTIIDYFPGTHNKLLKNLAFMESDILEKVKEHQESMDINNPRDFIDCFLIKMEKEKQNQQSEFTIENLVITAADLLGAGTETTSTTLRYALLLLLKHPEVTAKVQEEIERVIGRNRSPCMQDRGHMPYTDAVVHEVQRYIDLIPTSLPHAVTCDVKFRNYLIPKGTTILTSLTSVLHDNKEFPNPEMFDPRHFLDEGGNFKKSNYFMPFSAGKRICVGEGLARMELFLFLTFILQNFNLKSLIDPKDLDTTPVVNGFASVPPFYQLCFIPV
CYP1A2, sequence (P05177 whole entry): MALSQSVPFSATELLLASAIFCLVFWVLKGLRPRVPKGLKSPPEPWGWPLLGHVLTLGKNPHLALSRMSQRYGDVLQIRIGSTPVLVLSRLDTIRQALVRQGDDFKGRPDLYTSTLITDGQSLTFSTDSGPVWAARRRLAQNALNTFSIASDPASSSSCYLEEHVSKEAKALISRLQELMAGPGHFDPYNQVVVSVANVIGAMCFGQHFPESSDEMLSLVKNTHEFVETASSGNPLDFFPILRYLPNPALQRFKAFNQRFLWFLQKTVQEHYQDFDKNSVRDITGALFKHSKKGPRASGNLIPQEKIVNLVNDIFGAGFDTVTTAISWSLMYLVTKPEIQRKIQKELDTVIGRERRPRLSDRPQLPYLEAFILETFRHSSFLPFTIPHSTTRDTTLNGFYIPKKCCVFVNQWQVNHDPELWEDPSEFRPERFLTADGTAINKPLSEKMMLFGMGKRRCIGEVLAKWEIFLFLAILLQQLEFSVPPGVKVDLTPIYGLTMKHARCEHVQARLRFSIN

| Structure (SMILES) | IC50 [1] [µM] | IC50 [2] [µM] | IC50 ([3]; read-out: Cyp IC50 1A2, CYP1A2, substrate CEC) [µM] | IC50 [4] [µM] | Biochemical activity ratio V600E/C [4] | Biochemical activity ratio B/V600E [5] | Biochemical activity ratio B/C [5] | IC50 [6] [µM] | IC50 [7, 11] [µM] | IC50 [8, 12] [µM] | turbidity threshold (L, M, H) 1.4 [9] | turbidity threshold (L, M, H) 6.8 [9] | turbidity threshold (L, M, H) 7.4 [9] | IC50 [10] [µM] | IC50 ([3]; human, 15 min) [µM] | IC50 [8] [µM] | turbidity threshold (L, M, H) 4.5 [9] | IC50 [7] [µM] |
| --- | --- | --- | --- | --- | --- | --- | --- | --- | --- | --- | --- | --- | --- | --- | --- | --- | --- | --- |
| O=C(c1c(F)ccc(NS(=O)(=O)c2ccc(C(F)(F)F)cc2)c1F)c1c[nH]c2ncnc(Cl)c12 [P-1016, N-[3-(4-Chloro-7H-pyrrolo[2,3-d]pyrimidine-5-carbonyl)-2,4-difluoro-phenyl]-4-trifluoromethyl-benzenesulfonamide] | > 10 | < 0.1 | > 10 | > 0.1 | >10 | 0.1-10 | >10 | > 0.1 | > 10 | > 10 | L (low solubility if the threshold concentration is <31.3 μM) | L (low solubility if the threshold concentration is <31.3 μM) | H (high solubility if the threshold concentration is >250 μm) | > 10 | – | – | – | – |
| CC(C)CNc1ncnc2[nH]cc(C(=O)c3c(F)ccc(NS(=O)(=O)c4ccc(C(F)(F)F)cc4)c3F)c12 [P-1020, N-[2,4-Difluoro-3-(4-isobutylamino-7H-pyrrolo[2,3-d]pyrimidine-5-carbonyl)-phenyl]-4-trifluoromethyl-benzenesulfonamide] | > 10 | < 0.1 | – | > 0.1 | >10 | 0.1-10 | >10 | < 0.1 | > 10 | > 10 | H (high solubility if the threshold concentration is >250 μm) | – | H (high solubility if the threshold concentration is >250 μm) | > 10 | > 10 | – | – | – |
| CCNc1ncnc2[nH]cc(C(=O)c3c(F)ccc(NS(=O)(=O)c4ccc(C(F)(F)F)cc4)c3F)c12 [P-1024, N-[3-(4-Ethylamino-7H-pyrrolo[2,3-d]pyrimidine-5-carbonyl)-2,4-difluoro-phenyl]-4-trifluoromethyl-benzenesulfonamide] | > 10 | < 0.1 | – | > 0.1 | >10 | 0.1-10 | >10 | < 0.1 | > 10 | – | M (moderate solubility if the threshold concentration is 31.3 μM to 250 μM) | L (low solubility if the threshold concentration is <31.3 μM) | L (low solubility if the threshold concentration is <31.3 μM) | > 10 | > 10 | 5 to 10 | L (low solubility if the threshold concentration is <31.3 μM) | – |
| COc1ncnc2[nH]cc(C(=O)c3c(F)ccc(NS(=O)(=O)c4cc(C)cc(C)c4)c3F)c12 [P-1025, N-[2,4-Difluoro-3-(4-methoxy-7H-pyrrolo[2,3-d]pyrimidine-5-carbonyl)-phenyl]-3,5-dimethyl-benzenesulfonamide] | > 10 | < 0.1 | – | > 0.1 | 0.1-10 | 0.1-10 | >10 | > 0.1 | – | > 10 | M (moderate solubility if the threshold concentration is 31.3 μM to 250 μM) | M (moderate solubility if the threshold concentration is 31.3 μM to 250 μM) | – | > 10 | > 10 | – | L (low solubility if the threshold concentration is <31.3 μM) | 5 to 10 |
| CNc1ncnc2[nH]cc(C(=O)c3c(F)ccc(NS(=O)(=O)c4ccc(C(F)(F)F)cc4)c3F)c12 [P-1026, N-[2,4-Difluoro-3-(4-methylamino-7H-pyrrolo[2,3-d]pyrimidine-5-carbonyl)-phenyl]-4-trifluoromethyl-benzenesulfonamide] | > 10 | < 0.1 | – | > 0.1 | >10 | 0.1-10 | >10 | > 0.1 | > 10 | > 10 | – | M (moderate solubility if the threshold concentration is 31.3 μM to 250 μM) | M (moderate solubility if the threshold concentration is 31.3 μM to 250 μM) | > 10 | > 10 | – | – | – |
| Cc1cc(C)cc(S(=O)(=O)Nc2ccc(F)c(C(=O)c3c[nH]c4ncnc(C)c34)c2F)c1 [P-1027, N-[2,4-Difluoro-3-(4-methyl-7H-pyrrolo[2,3-d]pyrimidine-5-carbonyl)-phenyl]-3,5-dimethyl-benzenesulfonamide] | > 10 | < 0.1 | – | > 0.1 | 0.1-10 | 0.1-10 | >10 | > 0.1 | > 10 | > 10 | – | M (moderate solubility if the threshold concentration is 31.3 μM to 250 μM) | – | > 10 | > 10 | – | L (low solubility if the threshold concentration is <31.3 μM) | – |
